Values quoted from earlier work, collected in US20190365664A1, “CARYOPHYLLENE FORMULATIONS, APPARATUSES, AND METHODS” (Biotech Institute, LLC, priority 2016, published 2019).

Conditions: other studies (National Geographic News, Jun. 24, 2008)

## C=C1CC/C=C(\C)CC[C@@H]2[C@@H]1CC2(C)C [BCP, 4,11,11-Trimethyl-8-methylenebicyclo[7.2.0]undec-4-ene]
  psychoactive effects: does not have psychoactive effects
